PubChem BioAssay AID624485 (The Scripps Research Institute Molecular Screening Center, 2012)
Several values for one entry are separate records, joined by “and”; a condition that tells them apart may be missing. Identical values can stand only once. Activity calls are given as the source filed them.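 Rule for the calls: active = over 50% inhibition of probe labelling of the prolyl oligopeptidase-like enzyme in cells; inactive = inhibition at or below 50%.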

Each molecule was assayed against Prolyl endopeptidase-like (Mus musculus) (UniProt Q8C167) (assay: in situ blockade of mouse PREPL – cell-based, click chemistry ABPP, gel, fluorescence (AID 624485)). Conditions: Neuro-2A transfected mPrepl, in situ gel CC-ABPP; at 50 µM; stronger effect = higher value.
Prolyl endopeptidase-like (Mus musculus), sequence (Q8C167 whole entry, looked up): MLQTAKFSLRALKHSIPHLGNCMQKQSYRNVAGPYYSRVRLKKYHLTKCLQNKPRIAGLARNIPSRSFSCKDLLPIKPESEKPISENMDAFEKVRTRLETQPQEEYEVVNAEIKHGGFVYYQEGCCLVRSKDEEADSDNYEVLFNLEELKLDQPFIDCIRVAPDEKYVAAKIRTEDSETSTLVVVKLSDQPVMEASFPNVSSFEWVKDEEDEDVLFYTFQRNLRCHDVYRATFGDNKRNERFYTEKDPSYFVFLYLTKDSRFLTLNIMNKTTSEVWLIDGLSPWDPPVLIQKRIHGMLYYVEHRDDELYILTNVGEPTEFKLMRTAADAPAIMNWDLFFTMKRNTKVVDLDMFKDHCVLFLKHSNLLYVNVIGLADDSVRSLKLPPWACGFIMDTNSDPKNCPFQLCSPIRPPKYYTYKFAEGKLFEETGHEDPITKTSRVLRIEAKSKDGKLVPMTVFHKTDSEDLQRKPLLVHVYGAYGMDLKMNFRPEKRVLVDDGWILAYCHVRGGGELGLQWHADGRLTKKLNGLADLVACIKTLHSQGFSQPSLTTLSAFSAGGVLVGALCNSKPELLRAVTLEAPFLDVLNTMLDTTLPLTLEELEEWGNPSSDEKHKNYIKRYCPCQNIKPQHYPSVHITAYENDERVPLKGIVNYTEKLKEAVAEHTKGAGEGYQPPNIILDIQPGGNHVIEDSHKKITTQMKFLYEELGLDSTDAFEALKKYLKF
N#Cc1c2c(c(-c3ccccc3)[nH]c1=O)CCCC2 was tested, and the inhibition was 60%. With CC(C)Cc1[nH]c(=O)c(C#N)c2c1CCC2 the inhibition was 90%. In the case of O=C(Nc1ccc2c(c1)OCCO2)c1cccc2nc3ccccc3nc12, the inhibition is reported as -26% (inactive). With CCOc1ccc(CCNC(=O)c2ccc3c(=O)[nH]c4c(C(=O)NC(C)C)sc(=S)n4c3c2)cc1 the inhibition was -29% (inactive) and 0% (inactive).
